Data taken from patent US20250145594A1, “MODULATORS OF THE INTEGRATED STRESS PATHWAY” (Calico Life Sciences LLC, priority 2020, published 2025).

Tested on: ATF4 luciferase reporter in HEK293T cells
Assay: ATF4-Luc assay (in vitro model of VWMD)
Type: cell-based, human
Conditions: Homo sapiens, HEK-293T, 7 h, HEK293T cells carrying the ATF4 luciferase reporter, 1 μg/mL tunicamycin, One Glo luminescence
Summary of the method: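 Stable HEK293T line expressing firefly luciferase behind the human ATF4 5′-UTR, treated with 1 μg/mL tunicamycin plus compound for 7 hours. Luminescence read with One Glo; EC50 determined.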

| SMILES | EC50 [nM] |
| --- | --- |
| O=C(NC12CC(n3cnc(-c4ccc(OC(F)(F)F)c(F)c4F)c3)(C1)C2)[C@H]1C[C@@H](O)c2cc(Cl)ccc2O1 [Compound 391, (2R,4R)-6-chloro-N-(3-{4-[2,3-difluoro-4-(trifluoromethoxy)phenyl]-1H-imidazol-1-yl}bicyclo[1.1.1]pentan-1-yl)-4-hydroxy-3,4-dihydro-2H-1-benzopyran-2-carboxamide] | < 10 |
| C[Si]1(C)CCN(C(=O)c2cnn(C34CC(NC(=O)[C@H]5C[C@@H](O)c6cc(Cl)ccc6O5)(C3)C4)c2)C1 [Compound 401, (2R,4R)-6-chloro-N-{3-[4-(3,3-dimethyl-1,3-azasilolidine-1-carbonyl)-1H-pyrazol-1-yl]bicyclo[1.1.1]pentan-1-yl}-4-hydroxy-3,4-dihydro-2H-1-benzopyran-2-carboxamide] | 250 to 500 |
| O=C(NC12CC(n3cc(C(=O)N4CC[C@H](F)C4)cn3)(C1)C2)[C@H]1C[C@@H](O)c2cc(Cl)ccc2O1 [Compound 382, (2R,4R)-6-chloro-N-(3-{4-[(3S)-3-fluoropyrrolidine-1-carbonyl]-1H-pyrazol-1-yl}bicyclo[1.1.1]pentan-1-yl)-4-hydroxy-3,4-dihydro-2H-1-benzopyran-2-carboxamide] | 50 to 250 |
| O=C(NC12CC(c3ccc(C(=O)N4CC(COC(F)(F)F)C4)nc3)(C1)C2)[C@H]1C[C@@H](O)c2cc(Cl)ccc2O1 [Compound 537, (2R,4R)-6-chloro-4-hydroxy-N-[3-(6-{3-[(trifluoromethoxy)methyl]azetidine-1-carbonyl}pyridin-3-yl)bicyclo[1.1.1]pentan-1-yl]-3,4-dihydro-2H-1-benzopyran-2-carboxamide] | < 10 |
| O=C(NC12CC(n3cc(OCCOC(F)(F)F)cn3)(C1)C2)[C@H]1C[C@H](O)c2cc(C(F)(F)F)c(F)cc2O1 [Compound 633, (2R,43)-7-fluoro-4-hydroxy-N-(3-{4-[2-(trifluoromethoxy)ethoxy]-1H-pyrazol-1-yl}bicyclo[1.1.1]pentan-1-yl)-6-(trifluoromethyl)-3,4-dihydro-2H-1-benzopyran-2-carboxamide] | < 10 |
| COc1ccc2nn(C34CC(NC(=O)[C@H]5C[C@@H](O)c6cc(Cl)c(F)cc6O5)(C3)C4)cc2n1 [Compound 506, (2R,4R)-6-chloro-7-fluoro-4-hydroxy-N-[3-(5-methoxy-2H-pyrazolo[4,3-b]pyridin-2-yl)bicyclo[1.1.1]pentan-1-yl]-3,4-dihydro-2H-1-benzopyran-2-carboxamide] | < 10 |
| O=C(NC12CC(n3cc(-c4ccc(C5CC5)cn4)cn3)(C1)C2)[C@H]1C[C@@H](O)c2cc(Cl)ccc2O1 [Compound 570, (2R,4R)-6-chloro-N-{3-[4-(5-cyclopropylpyridin-2-yl)-1H-pyrazol-1-yl]bicyclo[1.1.1]pentan-1-yl}-4-hydroxy-3,4-dihydro-2H-1-benzopyran-2-carboxamide] | < 10 |
| O=C(NC12CC(n3cc(-c4cnn(CC(F)(F)F)c4)cn3)(C1)C2)[C@H]1C[C@@H](O)c2cc(Cl)ccc2O1 [Compound 563, (2R,4R)-6-chloro-4-hydroxy-N-{3-[1′-(2,2,2-trifluoroethyl)-1H,1′H-[4,4′-bipyrazol]-1-yl]bicyclo[1.1.1]pentan-1-yl}-3,4-dihydro-2H-1-benzopyran-2-carboxamide] | < 10 |
| O=C(NC12CC(n3cc([C@H]4C[C@@H](OC(F)(F)F)C4)nn3)(C1)C2)[C@H]1C[C@@H](O)c2cc(Cl)c(F)cc2O1 [Compound 473, (2R,4R)-6-chloro-7-fluoro-4-hydroxy-N-(3-{4-[(1s,3S)-3-(trifluoromethoxy)cyclobutyl]-1H-1,2,3-triazol-1-yl}bicyclo[1.1.1]pentan-1-yl)-3,4-dihydro-2H-1-benzopyran-2-carboxamide] | < 10 |
| O=C(NC12CCC(n3cc(OCCCOC(F)(F)F)cn3)(C1)C2)[C@H]1C[C@@H](O)c2cc(Cl)ccc2O1 [Compound 628, (2R,4R)-6-chloro-4-hydroxy-N-(4-{4-[3-(trifluoromethoxy)propoxy]-1H-pyrazol-1-yl}bicyclo[2.1.1]hexan-1-yl)-3,4-dihydro-2H-1-benzopyran-2-carboxamide] | 50 to 250 |
